# Data: patent publication US5869234A, “Method of identifying compounds which modulate herpesvirus infection” (President and Fellows of Harvard College, priority 1996, dated 1999)
# Ends that are not written are not given here.
# Columns and labels:
# ICP4 = test: In vitro phosphorylation of purified ICP4 without added kinase; format: biochemical, HSV-1; settings: 1 mM
# Protocol: In vitro phosphorylation of purified ICP4 proteins with PKA or without added kinase. Approximately 20 ng of the ICP4 protein purified as described previously (Imbalzano, A. N., Shepard, A. A. and DeLuca, N. A., J. Virol., 64:2620-2631 (1990)) was added to a solution containing 10 mM Tris (pH 7.2), 10 mM MgCl2, 50 mM NaCl, 10 mM DTT and 20 μM (0.15 mCi) [γ-^32 P]ATP. The phosphorylation reaction was initiated by adding 60 U of protein kinase A type I catalytic subunit purified from bovine heart (Sigma Chem. Co., 1000 U/0.016 mg protein). Reaction mixtures were incubated at 30° C. for 30 min and stopped by addition of SDS-sample buffer. Equal portions of the reactions were analyzed by SDS-PAGE and transferred onto a nitrocellulose sheet for exposure to Kodak X-AR film and for staining with an ICP4-specific antibody. In some cases, the reaction mixtures were terminated by addition of 0.5 ml lysis buffer, and immunoprecipitation was conducted exactly as described above.
# When an equivalent amount of d8-10 ICP4 protein was incubated, no labeled band was observed (Example 1; FIG. 5A, lane 3). The amount of phosphorylation in the absence of added enzyme was approximately one-tenth the level of phosphorylation in the presence of PKA. This phosphorylation in the absence of added enzyme may have resulted from an enzyme tightly bound to ICP4 or from an activity intrinsic to ICP4 itself. […]
# viral DNA synthesis = settings: cited from earlier work
# [1] = cited from earlier work
# [2] = target: T1, protein kinase A type I catalytic subunit (Bos taurus, UniProt P00517); test: In vitro phosphorylation of a synthetic peptide by PKA; format: biochemical, bovine; settings: for Ratio**: ratio defined in footnote drawing 1
# T1 construct: purchased Sigma Chem. Co; host or cells: bovine heart
# Protocol: (§1) ii) In vitro phosphorylation of a synthetic peptide. A peptide containing a potential protein kinase A site in the serine-rich region of ICP4 (RRRRHGRWRPSASST, residues 165-179) (SEQ ID NO: 2 ) was synthesized on an Applied Biosystems model 430A automated peptide synthesizer and purified by HPLC. Amino acid analysis confirmed the authenticity of this peptide, termed ICP4tide. ICP4tide (100 μM), or Kemptide (LRRASLG, Sigma Inc.), a commercially available substrate for protein kinase A ([…]), was then incubated at 30° C. in a solution containing 24 mM MES (pH 7.0), […], 5.6 nM [^32 P]ATP (300-600 Ci/mmol). Each reaction was subsequently initiated by adding 80 U of protein kinase A type I catalytic subunit purified from bovine heart (Sigma Chem. Co., 1000U/0.016 mg protein) to a final volume of 52.5 μl. Following incubation for 4 minutes, 20 μl of the reaction was spotted onto P81 phosphocellulose strips, and phosphopeptides were quantitated after washing three times in […] of 75 mM phosphoric acid as previously described (Roskoski, R. Jr., Methods in Enzymology, 99:3-6 (1983)). For kinetic studies, the concentration of ICP4tide was varied as indicated. The ICP4tide was also phosphorylated in a manner similar to those described below for phosphorylation of purified ICP4 proteins with PKA except that synthetic peptide replaced the purified ICP4 and the ATP concentration was increased to 60 mM. Such phosphorylated peptides were resolved in a 27% SDS-polyacrylamide gel.
# (§2) Accordingly, a peptide, named ICP4tide (RRRRHGRWRPSASST, residues 165-179) (SEQ ID NO: 2), corresponding to this potential site was synthesized and incubated in vitro with purified type I catalytic subunits of PKA and [γ-^32 P]ATP. Kemptide (LRRASLG) (SEQ ID NO: 5), a commercially available substrate for PKA, was used as a positive control.
# (§3) To determine the Km values of these reactions, we incubated different concentrations of ICP4tide with [Y-^32 P]ATP and a fixed amount of PKA catalytic subunits (80 U each) for 4 min at 30° C. Varying amounts of ICP4tide were incubated with […] of PKA and 60 μM ATP, and the incorporation of ^32 P into ICP4tide was determined. From the Lineweaver-Burk representation of the data, the Km was determined as described (Michael, N., Spector, D., Mavromara-Nazos, P., Kristie, T. M. and Roizman, B., Science, 239:1531-1534 (1988)). […] Thus, the synthetic ICP4tide could be considered to be a good substrate for PKA in vitro.
# [3] = system: CC(C)C[C@H](NC(=O)[C@H](CO)NC(=O)[C@H](C)NC(=O)[C@H](CCCNC(=N)N)NC(=O)[C@H](CCCNC(=N)N)NC(=O)[C@@H](N)CC(C)C)C(=O)NCC(=O)O; test: as above; format: biochemical, bovine; settings: other: Lineweaver-Burk, PKA catalytic subunits, 4 min at 30° C., 60 μM ATP, pH 7.0
# Protocol: as §1, §2, §3
compound,measurement,setting,value
[Mn+2] [Mn^+2],effect on phosphorylation of ICP4 in the absence of added kinase,ICP4,inhibited
Nc1nc2c(ncn2COCCO)c(=O)[nH]1 [acyclovir],effect on viral DNA synthesis,viral DNA synthesis,inhibits viral DNA synthesis
Nc1ncnc2c1ncn2[C@@H]1O[C@H](CO)[C@@H](O)[C@@H]1O [vidarabine],effect on viral DNA synthesis,viral DNA synthesis,inhibits viral DNA synthesis
same,properties in some experimental models,[1],"teratogenic, mutagenic and carcinogenic properties"
"LRRASLG [Kemptide, LRRASLG]",Phosphorylation (cpm),[2]; +PKA,768687 cpm
same,γ^32 P incorporated (%),[2]; +PKA,26.1%
same,Ratio**,[2]; +PKA,88.5
same,Phosphorylation (cpm),[2]; -PKA,8682 cpm
same,γ^32 P incorporated (%),[2]; -PKA,0.3%
RRRRHGRWRPSASST [ICP4tide],Phosphorylation (cpm),[2]; +PKA,182104 cpm
same,γ^32 P incorporated (%),[2]; +PKA,6.2%
same,Ratio**,[2]; +PKA,26.2
same,Phosphorylation (cpm),[2]; -PKA,6946 cpm
same,γ^32 P incorporated (%),[2]; -PKA,0.24%
same,Km,"[2]; Lineweaver-Burk, PKA catalytic subunits, 4 min at 30° C., 60 μM ATP",39 µM
same,"phosphorylation by PKA, in words",[2]; compared with Kemptide,strongly phosphorylated
protein kinase A type I catalytic subunit (Bos taurus),Km,[3],9 µM
